We go through seven molecules from PubChem BioAssay (NCI).

The structures appear in SMILES notation.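 The compound was tested at five concentrations on cells cultured in 96-well plates, with a 48-hour exposure period. TGI: total growth inhibition.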

Test systems include OVCAR-4 ovarian; ACHN renal; K-562 leukemia; HOP-92 NSCLC; MDA-MB-231 breast; OVCAR-5 ovarian; OVCAR-8 ovarian; RXF 393 renal; MCF7 breast; T-47D breast; SF-295 CNS; HCC-2998 colon; UACC-62 melanoma; SNB-19 CNS; U251 CNS; 786-0 renal; IGROV1 ovarian; SK-MEL-28 melanoma; SW-620 colon.
What all share (assay): inhibition of tumour cell growth, NCI panel, 48 h

On to `CC(=O)C(I(OS(=O)(=O)c1ccc(C)cc1)c1ccccc1)=P(c1ccccc1)(c1ccccc1)c1ccccc1`, for which the TGI is 37 µM in the experiment with OVCAR-4 ovarian; more than 100 µM in the experiment on ACHN renal; more than 100 µM with K-562 leukemia; 54.7 µM in the experiment with HOP-92 NSCLC; 69.3 µM with MDA-MB-231 breast; 60.2 µM in the experiment on OVCAR-5 ovarian. In addition, the TGI with OVCAR-8 ovarian was more than 100 µM; in the experiment with RXF 393 renal, more than 100 µM; with MCF7 breast, more than 100 µM; in the experiment with T-47D breast, 85.3 µM; in the experiment on SF-295 CNS, more than 100 µM; with HCC-2998 colon, 39 µM. In addition, the TGI in the experiment with UACC-62 melanoma was 17 µM; in the experiment on SNB-19 CNS it was more than 100 µM; in the experiment with U251 CNS it was 98.5 µM; in the experiment on 786-0 renal, more than 100 µM; in the experiment on IGROV1 ovarian, 73.5 µM; with SK-MEL-28 melanoma, 36.4 µM.

Regarding `COCC(N=CN1CCCc2ccccc2[C@@H]1CCCCl)C(C)(C)C` (some centres undefined), the TGI was found to be 36 µM in the experiment on OVCAR-4 ovarian; 70 µM in the experiment with ACHN renal; 57.6 µM in the experiment with SW-620 colon; 14.2 µM in the experiment with K-562 leukemia; 30 µM in the experiment on HOP-92 NSCLC; 9.48 µM with MDA-MB-231 breast. Moreover, the TGI in the experiment on OVCAR-5 ovarian worked out at 49.5 µM; with OVCAR-8 ovarian it was 40.7 µM; in the experiment with RXF 393 renal, 32.5 µM; in the experiment on MCF7 breast it was 4.28 µM; in the experiment with T-47D breast, 84.1 µM; in the experiment on SF-295 CNS it was 35.1 µM. Further, the TGI with HCC-2998 colon is 33.9 µM; in the experiment on UACC-62 melanoma it was 32.1 µM; in the experiment on SNB-19 CNS it was 65.1 µM; with U251 CNS, 34.8 µM; in the experiment with 786-0 renal, 28.1 µM; with IGROV1 ovarian, 14.2 µM. The molecule also returned a TGI in the experiment with SK-MEL-28 melanoma of more than 100 µM.

With `Cc1cc(C)nc(NS(=O)(=O)c2ccc(NNc3c4ccccc4nc4c(C(=O)Nc5ccc(S(=O)(=O)Nc6ncccn6)cc5)cccc34)cc2)n1`, the TGI in the experiment with OVCAR-4 ovarian was determined as 89.7 µM; with ACHN renal, 54.3 µM; in the experiment on SW-620 colon it was 55.2 µM; in the experiment with K-562 leukemia, 73.1 µM; with HOP-92 NSCLC it was 66.5 µM; with MDA-MB-231 breast, 65.3 µM. Besides, the TGI in the experiment on OVCAR-5 ovarian was 52.5 µM; in the experiment with OVCAR-8 ovarian, more than 100 µM; in the experiment with RXF 393 renal it was 80.1 µM; in the experiment on MCF7 breast it was more than 100 µM; in the experiment with T-47D breast, 74.3 µM; with SF-295 CNS it was more than 100 µM. The TGI with HCC-2998 colon was 51.2 µM; in the experiment with UACC-62 melanoma, 83.7 µM; in the experiment with SNB-19 CNS, more than 100 µM; in the experiment with U251 CNS, 56 µM; with 786-0 renal it was more than 100 µM; in the experiment on IGROV1 ovarian, more than 100 µM. In addition, the TGI with SK-MEL-28 melanoma was found to be 65 µM.

As to `c1ccc2c(C3CCN(CCN4CCOCC4)C3)c[nH]c2c1` (centres undefined), the TGI in the experiment on OVCAR-4 ovarian, in the experiment with ACHN renal, with SW-620 colon, with K-562 leukemia, in the experiment with HOP-92 NSCLC and in the experiment with MDA-MB-231 breast was more than 100 µM in each case. The TGI in the experiment on OVCAR-5 ovarian, with OVCAR-8 ovarian, in the experiment with RXF 393 renal, in the experiment with MCF7 breast, in the experiment with T-47D breast and in the experiment with SF-295 CNS was more than 100 µM in each case. Besides, the TGI in the experiment with HCC-2998 colon, with UACC-62 melanoma, in the experiment on SNB-19 CNS, in the experiment on U251 CNS, in the experiment with 786-0 renal and in the experiment on IGROV1 ovarian was more than 100 µM each time. Besides, the TGI in the experiment on SK-MEL-28 melanoma is more than 100 µM.

As to `COc1cc(/C=C(\C#N)c2nc3ccccc3o2)ccc1O`, the TGI in the experiment with OVCAR-4 ovarian was 40.7 µM; in the experiment with ACHN renal, 46.9 µM; in the experiment on K-562 leukemia, more than 100 µM; in the experiment on HOP-92 NSCLC, 50.8 µM; in the experiment on MDA-MB-231 breast, 68.5 µM; with OVCAR-5 ovarian it was 61.2 µM. The TGI in the experiment on OVCAR-8 ovarian is 50 µM; in the experiment with RXF 393 renal, more than 100 µM; in the experiment on MCF7 breast it was more than 100 µM; in the experiment with T-47D breast it was 46.9 µM; with SF-295 CNS it was 36.8 µM; with HCC-2998 colon, 41.9 µM. The TGI is 40.5 µM in the experiment with UACC-62 melanoma; more than 100 µM with SNB-19 CNS; 36.2 µM with U251 CNS; 66.4 µM with 786-0 renal; 38.1 µM with IGROV1 ovarian; 58.1 µM with SK-MEL-28 melanoma.

As for `O=C(c1cc(Cl)cc(Cl)c1)N(C(=O)N1CCN(c2ccccc2)CC1)c1ccccc1`, the TGI in the experiment on OVCAR-4 ovarian, in the experiment with ACHN renal, in the experiment with SW-620 colon, in the experiment with K-562 leukemia, with HOP-92 NSCLC and with MDA-MB-231 breast was more than 100 µM each time. The TGI in the experiment on OVCAR-5 ovarian, in the experiment on OVCAR-8 ovarian, in the experiment with RXF 393 renal, in the experiment on MCF7 breast, in the experiment with T-47D breast and with SF-295 CNS was more than 100 µM each time. Besides, the TGI in the experiment with HCC-2998 colon, with UACC-62 melanoma, in the experiment on SNB-19 CNS, with U251 CNS, with 786-0 renal and in the experiment with SK-MEL-28 melanoma was more than 100 µM in each case.

In the case of `CCN(CC)c1cc2c3c(c1)CCCN3CCC2`, the TGI in the experiment with OVCAR-4 ovarian, in the experiment with ACHN renal, in the experiment with SW-620 colon, in the experiment on K-562 leukemia, in the experiment on HOP-92 NSCLC and in the experiment with MDA-MB-231 breast was more than 10 µM each time. In addition, the TGI in the experiment with OVCAR-8 ovarian, in the experiment with RXF 393 renal, with MCF7 breast, with T-47D breast, with SF-295 CNS and with HCC-2998 colon was more than 10 µM in each case. The TGI with UACC-62 melanoma, in the experiment with SNB-19 CNS, with U251 CNS, in the experiment with 786-0 renal, in the experiment with IGROV1 ovarian and in the experiment with SK-MEL-28 melanoma was more than 10 µM in each case.
